In US12006328B2, “Thieno[2,3-d]pyrimidin-4-one derivatives as NMDAR modulators and uses related thereto” (Emory University, priority 2014, dated 2024):

Columns and labels:
[1] = target: GluN2C-containing NMDA receptors (Homo sapiens, UniProt Q05586+Q14957); assay: Two-electrode voltage-clamp recordings from Xenopus laevis oocytes, GluN2C; assay type: cell-based; details: Table 6; read-out: IC50 (μM) Glu N2C
In short: (§1)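 Xenopus oocytes expressing NMDA receptor subunits recorded by two-electrode voltage clamp 2–7 days after cRNA injection, in solution with 90 NaCl, 3 KCl, 10 HEPES, 0.5 BaCl2, 0.01 EDTA (mM), pH 7.4. Increasing compound concentrations applied with glutamate (100 μM) and glycine (30 μM); response expressed as percent of compound-free response.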

[2] = target: GluN2D-containing NMDA receptors (Homo sapiens, UniProt O15399+Q05586); assay: Two-electrode voltage-clamp recordings from Xenopus laevis oocytes, GluN2D; assay type: cell-based; details: Table 6; read-out: IC50 (μM) Glu N2D
In short: as §1

[3] = target: GluN2B-containing NMDA receptors (Homo sapiens, UniProt Q13224); assay: Two-electrode voltage-clamp recordings from Xenopus laevis oocytes, GluN2B; assay type: cell-based; details: for % response at 100 μM, Glu N2B: Table 6, printed in the IC50 column, 100 μM compound; for EC50 / maximal potentiation Glu N2B: Table 1; for EC50: glutamate 100 μM, glycine 30 μM, Hill fit, read-out: EC50 Glu N2B; for maximal potentiation Glu N2B: in brackets after EC50; for maximal potentiation Glu N2B / I10 μM/ICONTROL (mean ± SEM, %) Glu N2B: percent of response without compound; for I10 μM/ICONTROL (mean ± SEM, %) Glu N2B: 10 μM test compound with glutamate 100 μM and glycine 30 μM, Tables 1-5
In short: as §1

[4] = target: GluN2C-containing NMDA receptors (Homo sapiens, UniProt Q14957); assay: Two-electrode voltage-clamp recordings from Xenopus laevis oocytes, GluN2C; assay type: cell-based; details: for EC50 / maximal potentiation Glu N2C: Table 1; for EC50: glutamate 100 μM, glycine 30 μM, Hill fit, read-out: EC50 Glu N2C; for maximal potentiation Glu N2C: in brackets after EC50; for maximal potentiation Glu N2C / I10 μM/ICONTROL (mean ± SEM, %) Glu N2C: percent of response without compound; for I10 μM/ICONTROL (mean ± SEM, %) Glu N2C: 10 μM test compound with glutamate 100 μM and glycine 30 μM, Tables 1-5
In short: as §1

[5] = target: GluN2D-containing NMDA receptors (Homo sapiens, UniProt O15399); assay: Two-electrode voltage-clamp recordings from Xenopus laevis oocytes, GluN2D; assay type: cell-based; details: for EC50 / maximal potentiation Glu N2D: Table 1; for EC50: glutamate 100 μM, glycine 30 μM, Hill fit, read-out: EC50 Glu N2D; for maximal potentiation Glu N2D: in brackets after EC50; for maximal potentiation Glu N2D / I10 μM/ICONTROL (mean ± SEM, %) Glu N2D: percent of response without compound; for I10 μM/ICONTROL (mean ± SEM, %) Glu N2D: 10 μM test compound with glutamate 100 μM and glycine 30 μM, Tables 1-5
In short: as §1

[6] = target: T1, GluN1/GluN2B expressing HEK293 cells (Homo sapiens, UniProt Q13224); assay: Rapid solution exchange patch clamp in transfected HEK293 cells; assay type: cell-based
T1 construct: expressed in transfected cells; host or cells: HEK293
Protocol: HEK293 cells were transfected used the CaPO4 method. Cells were patched 1-3 days later and lifted into the flow from a theta tube perfusion. […] NMDA receptor currents were activated using 100 μM glutamate and 30 μM glycine.

hippocampal CA1 neurons = assay: Hippocampal slice whole cell recordings; assay type: cell-based, mice
From the text: Coronal hippocampal brain slices were made from mice (p7-14) using a vibrotome. During slice cutting and recovery, the slices were bathed in an artificial cerebral spinal fluid (slicing aCSF—containing, in mM: 75 NaCl, 2.5 KCl, 1.25 NaH2PO4, 25 NaHCO3, 5 MgCl2 or MgSO4, 0.5 CaCl2, 20 Glucose, 70 Sucrose). Whole cell recordings were made using a different aCSF (recording aCSF—containing, in mM: 130 NaCl, 2.5 KCl, 1.25 NaH2PO4, 25 NaHCO3, 0.1 MgCl2 or MgSO4, 2.5 CaCl2, 20 Glucose), and using a CsGlu internal solution containing, following (in mM): 110 d-gluconic acid, 110 CsOH, 30 CsCl, 5 HEPES, 4 NaCl, 0.5 CaCl2, 2 MgCl2, 5 BAPTA, 2 Na2ATP, and 0.3 NaGTP (pH 7.35).

[7] = 1622-35 10 μM versus control, N 4

GluN2D-containing NMDA receptors (Homo sapiens, UniProt O15399), sequence (O15399 28-1336, other chains not shown): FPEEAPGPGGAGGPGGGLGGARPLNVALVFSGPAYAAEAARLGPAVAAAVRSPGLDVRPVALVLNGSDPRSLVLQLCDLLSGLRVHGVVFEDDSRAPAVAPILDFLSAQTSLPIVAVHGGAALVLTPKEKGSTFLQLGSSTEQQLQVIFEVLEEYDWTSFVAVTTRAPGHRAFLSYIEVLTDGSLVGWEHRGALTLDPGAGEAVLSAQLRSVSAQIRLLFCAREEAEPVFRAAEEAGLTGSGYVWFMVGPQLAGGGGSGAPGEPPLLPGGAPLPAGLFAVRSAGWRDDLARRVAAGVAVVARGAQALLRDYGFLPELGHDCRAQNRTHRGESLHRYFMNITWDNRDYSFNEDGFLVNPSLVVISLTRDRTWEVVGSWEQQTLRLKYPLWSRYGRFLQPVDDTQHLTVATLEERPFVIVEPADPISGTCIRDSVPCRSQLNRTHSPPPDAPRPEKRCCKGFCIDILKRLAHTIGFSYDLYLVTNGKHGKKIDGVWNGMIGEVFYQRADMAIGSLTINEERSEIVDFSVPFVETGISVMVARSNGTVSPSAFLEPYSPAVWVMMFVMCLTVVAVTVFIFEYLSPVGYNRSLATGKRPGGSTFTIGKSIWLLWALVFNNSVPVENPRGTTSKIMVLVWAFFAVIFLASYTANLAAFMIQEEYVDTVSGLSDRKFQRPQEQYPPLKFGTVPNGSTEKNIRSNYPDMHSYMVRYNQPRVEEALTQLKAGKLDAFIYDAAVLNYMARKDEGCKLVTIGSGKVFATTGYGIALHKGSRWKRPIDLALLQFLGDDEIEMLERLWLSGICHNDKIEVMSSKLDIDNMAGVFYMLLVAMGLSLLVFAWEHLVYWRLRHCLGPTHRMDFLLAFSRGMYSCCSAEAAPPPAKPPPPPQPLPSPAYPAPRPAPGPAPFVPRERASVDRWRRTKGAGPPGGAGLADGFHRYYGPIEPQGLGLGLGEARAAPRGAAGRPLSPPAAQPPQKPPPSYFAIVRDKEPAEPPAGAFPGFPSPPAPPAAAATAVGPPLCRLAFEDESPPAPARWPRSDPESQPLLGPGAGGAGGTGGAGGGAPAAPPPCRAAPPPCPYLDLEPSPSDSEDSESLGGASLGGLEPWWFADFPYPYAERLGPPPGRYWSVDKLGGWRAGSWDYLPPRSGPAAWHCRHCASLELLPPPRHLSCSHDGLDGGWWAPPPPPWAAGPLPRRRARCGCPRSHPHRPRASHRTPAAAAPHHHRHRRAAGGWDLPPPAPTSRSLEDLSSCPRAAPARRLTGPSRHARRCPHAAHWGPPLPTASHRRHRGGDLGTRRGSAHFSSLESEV
GluN2B-containing NMDA receptors, sequence (Q13224 27-1484, other chains not shown): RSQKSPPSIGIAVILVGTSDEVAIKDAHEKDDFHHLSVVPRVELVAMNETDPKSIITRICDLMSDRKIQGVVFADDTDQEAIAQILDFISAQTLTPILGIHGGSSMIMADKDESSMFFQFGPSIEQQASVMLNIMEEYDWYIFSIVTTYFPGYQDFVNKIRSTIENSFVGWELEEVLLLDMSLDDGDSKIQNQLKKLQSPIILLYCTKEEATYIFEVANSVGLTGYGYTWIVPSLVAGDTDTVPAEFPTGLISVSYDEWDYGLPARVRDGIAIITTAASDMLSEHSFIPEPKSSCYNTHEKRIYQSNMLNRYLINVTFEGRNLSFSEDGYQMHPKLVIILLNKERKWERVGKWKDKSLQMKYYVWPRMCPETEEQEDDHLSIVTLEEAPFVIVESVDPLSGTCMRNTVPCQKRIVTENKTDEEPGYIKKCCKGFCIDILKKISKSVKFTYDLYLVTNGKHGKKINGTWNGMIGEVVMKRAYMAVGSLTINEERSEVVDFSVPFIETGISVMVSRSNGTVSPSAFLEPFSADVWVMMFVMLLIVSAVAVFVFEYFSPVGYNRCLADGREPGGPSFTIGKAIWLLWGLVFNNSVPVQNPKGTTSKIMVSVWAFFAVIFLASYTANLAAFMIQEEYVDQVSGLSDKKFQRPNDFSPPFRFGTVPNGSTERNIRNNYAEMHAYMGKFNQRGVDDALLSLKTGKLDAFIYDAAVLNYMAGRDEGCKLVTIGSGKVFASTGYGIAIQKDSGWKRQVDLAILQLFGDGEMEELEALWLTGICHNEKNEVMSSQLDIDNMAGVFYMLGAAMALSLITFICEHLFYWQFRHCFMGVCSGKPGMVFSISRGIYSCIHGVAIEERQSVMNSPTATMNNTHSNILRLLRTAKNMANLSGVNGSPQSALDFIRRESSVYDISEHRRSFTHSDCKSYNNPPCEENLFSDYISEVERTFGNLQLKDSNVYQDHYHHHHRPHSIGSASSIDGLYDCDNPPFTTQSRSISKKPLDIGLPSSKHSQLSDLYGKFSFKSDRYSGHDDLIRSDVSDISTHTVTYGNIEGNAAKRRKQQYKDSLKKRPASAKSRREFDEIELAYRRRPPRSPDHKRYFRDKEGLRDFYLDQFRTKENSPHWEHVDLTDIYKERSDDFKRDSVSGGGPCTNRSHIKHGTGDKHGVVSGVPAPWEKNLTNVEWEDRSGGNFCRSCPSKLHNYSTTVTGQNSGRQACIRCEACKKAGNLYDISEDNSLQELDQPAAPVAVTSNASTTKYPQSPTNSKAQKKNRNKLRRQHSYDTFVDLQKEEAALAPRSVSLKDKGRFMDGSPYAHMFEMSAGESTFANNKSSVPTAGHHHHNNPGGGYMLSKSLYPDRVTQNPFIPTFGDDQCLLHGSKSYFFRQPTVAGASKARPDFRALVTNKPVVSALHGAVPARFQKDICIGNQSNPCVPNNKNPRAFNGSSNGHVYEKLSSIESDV
T1 sequence (Q13224 27-1484, other chains not shown): as above
GluN2D-containing NMDA receptors (Homo sapiens, UniProt O15399+Q05586), sequence (O15399 28-1336, other chains not shown): as the sequence (O15399 28-1336, other chains not shown) above

SMILES	EC50 [4] [µM]	maximal potentiation Glu N2C [4] [%]	EC50 [5] [µM]	maximal potentiation Glu N2D [5] [%]	EC50 [3] [µM]	maximal potentiation Glu N2B [3] [%]	I10 μM/ICONTROL (mean ± SEM, %) Glu N2C [4] [%]	I10 μM/ICONTROL (mean ± SEM, %) Glu N2D [5] [%]	I10 μM/ICONTROL (mean ± SEM, %) Glu N2B [3] [%]	also measured
COCCN1Cc2c(sc(C)c2C)N(C(=O)c2ccc(OC)cc2)C1										IC50 [1]: 46 µM; IC50 [2]: 109 µM; % response at 100 μM, Glu N2B [3]: 86% response at 100 μM
COc1ccc(C(=O)N2CN(CC3CCCO3)Cc3c2sc(C)c3C)cc1 (stereo not drawn)										IC50 [1]: 6 µM; IC50 [2]: 35 µM; % response at 100 μM, Glu N2B [3]: 92% response at 100 μM
Cc1sc2ncn(CC(=O)N3CCCC3)c(=O)c2c1-c1ccc(Br)cc1 [4-Br—Ph / Me]	60	449	79	400	11.3	163				
O=C(Cn1cnc2scc(-c3ccc(Cl)cc3)c2c1=O)N1CCCC1 [4-Cl—Ph / H]	76	770	72	512	46	314				
Cc1sc2ncn(CC(=O)N3CCCC3)c(=O)c2c1-c1ccc(Cl)cc1 [4-Cl—Ph / Me]	15	347	23	381	11	223				
CCc1ccc(-c2csc3ncn(CC(=O)N4CCCC4)c(=O)c23)cc1 [4-Et—Ph / H]	66	417	58	355	39	223				
Cc1sc2ncn(CC(=O)N3CCCC3)c(=O)c2c1-c1ccc(F)cc1 [4-F—Ph / Me]	81	448	124	428	54	213				
O=C(Cn1cnc2scc(-c3ccc(I)cc3)c2c1=O)N1CCCC1 [4-I—Ph / H]	89	369	45	206	75	262	110 ± 2.1	101 ± 1.8	121 ± 5.7	
CSc1ccc(-c2csc3ncn(CC(=O)N4CCCC4)c(=O)c23)cc1 [4-MeS—Ph / H]							99 ± 2.5	96 ± 2.6	102 ± 4.6	
Cc1ccc(-c2csc3ncn(CC(=O)N4CCCC4)c(=O)c23)cc1 [4-Me—Ph / H]	207	597	170	560	109	226				
[N-]=[N+]=Nc1ccc(-c2csc3ncn(CC(=O)N4CCCC4)c(=O)c23)cc1 [4-N3—Ph / H]	102	918	134	730	88	353	166 ± 7.2	147 ± 6.3	134 ± 6.7	
Cc1sc2ncn(CC(=O)N3CCCC3)c(=O)c2c1-c1ccc(N=[N+]=[N-])cc1 [4-N3—Ph / Me]	54	485	50	426	54	304	146 ± 6.4	128 ± 2.6	135 ± 5.5	
Cc1sc2ncn(CC(=O)N3CCCC3)c(=O)c2c1-c1ccc(N)cc1 [4-NH2—Ph / Me]							116 ± 4.5	103 ± 2.2	104 ± 1.7	
CCOc1ccc(-c2c(C)sc3ncn(CC(=O)N4CCCC4)c(=O)c23)cc1 [4-OEt—Ph / Me]	18	186	18	232	15	147				
Cc1sc2ncn(CC(=O)N3CCCC3)c(=O)c2c1-c1ccc(O)cc1 [4-OH—Ph / Me]							98 ± 2.3	99 ± 2.5	82 ± 1.0	
CC(C)c1ccc(-c2csc3ncn(CC(=O)N4CCCC4)c(=O)c23)cc1 [4-^iPr—Ph / H]					33	174	100 ± 2.5	98 ± 1.4	121 ± 6.9	
O=C(Cn1cnc2sc3c(c2c1=O)CCCC3)c1ccc([N+](=O)[O-])cc1 [Compound 4-NO2]							93 ± 2.0	97 ± 1.1	94 ± 1.3	
Cc1sc2ncn(CC(=O)N3CCCC3)c(=O)c2c1-c1cccc(I)c1 [Compound 1622-35]										effect on channel function and deactivation, excised outside-out patch ([6]; 30 μM 1622-35): increases in GluN1/GluN2 channel function and slows deactivation; Decay Time Constant, Fold Increase [6, 7]: 5.7 ± 1.9 fold; Peak Amplitude, Fold Increase [6, 7]: 3.4 ± 0.6 fold; Peak Amplitude (pA) ([6]; 1622-35 10 μM, 100 μM glutamate, 30 μM glycine, control 628 ± 237, N 4): 1694 ± 417 pA; Decay Time Constant ([6]; 1622-35 10 μM, 100 μM glutamate, 30 μM glycine, control 681 ± 142, N 4): 3037 ± 166 ms; prolonged deactivation of NMDA-Rs ([6]; rapid solution exchange electrophysiology): roughly 3 fold; effect on CA1 EPSPs during theta burst stimulation (hippocampal CA1 neurons): enhances the NMDA components of CA1 EPSPs; effect on sEPSCs in hippocampal pyramidal neurons (hippocampal CA1 neurons): potentiates only the NMDA component of the sEPSCs; total charge transfer of EPSCs (hippocampal CA1 neurons; 10 μM 1622-35): 2.3 times greater than control; time course of excitatory post synaptic currents (hippocampal CA1 neurons; 10 μM 1622-35, n=4, control 280±30 ms): 970 ± 220 ms
Cc1sc2ncn(CC(=O)N3CCCC3)c(=O)c2c1-c1ccccc1 [Ph / Me]	14	168	12	262	15	153	120 ± 3.7	148 ± 9.1	115 ± 5.4	
C#CCn1cnc2sc(C)c(-c3cccc(Cl)c3)c2c1=O [—C≡CH]							98 ± 7.9	98 ± 4.3	116 ± 4.0	
